This note sets out measurements from PMC13077603, “Fluorine‐18‐Labeled Nucleotide Analogs Targeting Ecto‐5'‐Nucleotidase (CD73) for Positron Emission Tomography Imaging of Solid Tumors” (Angewandte Chemie (International Ed. in English), 2026).

Data set [1] concerns the target T1, Soluble recombinant human CD73 (Homo sapiens, UniProt P21589).
T1 sequence (P21589 27-549 limits assumed): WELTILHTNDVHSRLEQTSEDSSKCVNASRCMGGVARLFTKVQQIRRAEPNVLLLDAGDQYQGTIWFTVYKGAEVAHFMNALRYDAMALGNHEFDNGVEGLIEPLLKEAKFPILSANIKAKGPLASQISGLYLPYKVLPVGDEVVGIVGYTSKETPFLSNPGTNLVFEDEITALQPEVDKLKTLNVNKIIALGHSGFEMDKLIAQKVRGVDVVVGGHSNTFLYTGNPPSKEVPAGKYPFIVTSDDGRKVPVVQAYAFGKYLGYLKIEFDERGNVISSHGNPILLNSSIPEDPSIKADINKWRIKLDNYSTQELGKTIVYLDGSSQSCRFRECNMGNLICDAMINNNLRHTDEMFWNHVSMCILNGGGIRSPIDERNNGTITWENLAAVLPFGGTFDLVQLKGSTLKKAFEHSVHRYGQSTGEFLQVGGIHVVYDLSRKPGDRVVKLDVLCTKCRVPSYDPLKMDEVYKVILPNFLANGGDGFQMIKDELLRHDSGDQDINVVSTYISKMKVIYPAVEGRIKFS
The data set can be described thus: CD73 enzyme inhibition assay, soluble recombinant human CD73. Type of data set: biochemical. Conditions: soluble recombinant human CD73, Km 17 µM, substrate AMP (5 µM). Here is the method:
Both compounds were evaluated for metabolic stability in mouse liver microsomes (MLM) and plasma protein binding (PPB) (Table 1).
The CD73 enzyme inhibition assay of recombinant soluble CD73, membrane-bound human CD73, soluble rat CD73 and mouse CD73 was performed as previously described.^[16,35^]

The nature of data set [2]: logD7.4 determination of radiotracers (PBS/octan-1-ol). The data set is classed as physicochemical. The following applies: octan-1-ol/PBS; PBS pH 7.4 / octan-1-ol, radiotracer. The protocol: The logD 7.4 values of both radiotracers were determined using a previously described method based on their distribution between phosphate‐buffered saline (PBS) and octan‐1‐ol.
Triazole radiotracers (~400 kBq) in PBS buffer (10 µL, pH 7.4) were added to PBS buffer (590 µL, pH 7.4) and octan-1-ol (600 µL). The two-layer mixture was shaken for 3 min on a vortex mixer at r.t. and centrifuged (200 g) for 5 min. The main part of the octanol layer (400 µL) was carefully collected and transferred to a new tube containing PBS buffer (400 µL, pH 7.4). The two-layer mixture was shaken again for 10 min and centrifuged for 5 min (200 g). Three samples were prepared, and two aliquots (á 100 µL) of both layers were measured in a gamma-counter 2480 Wizard2 (Perkin-Elmer, Waltham, USA). The partition coefficient was determined by dividing cpm (octanol) by cpm (PBS) and indicated as logD7.4 (exp.).

Data set [3] in a line: PET/gamma counter biodistribution in healthy mice. Type of data set: in vivo, C57BL/6 WT mice. Here is the method:
Next, biodistribution studies of compounds [^18F]1 and [^18F]2 were performed in female C57BL/6 WT mice. Dynamic (0–90 min), static (77–90 min), and late (240–260 min) scans were performed in a small animal PET scanner. Each PET scan was combined with computer tomography (CT). In the case of [^18F]2, […] of the tracer was excreted within the first 30 min via renal (19%ID) and hepatobiliary (60%ID, Figure 5A–C) routes. After 90 min, most of the tracer was found in the intestine, gallbladder, bladder (urine), and liver, while only 0.3 ± 0.1 %ID/mL of the radiosignal was detected in the blood at that time point (Figure 5B, C). Concentrations in the lung, heart, muscle, and brain were also relatively low. Nevertheless, during the first 3 min, the tracer was distributed within the whole body, reaching every tissue (Figure 5A).
The radiotracer [^18F]1 was injected into the tail vein, entered the heart, and was subsequently distributed throughout the whole body. […] Nearly no tracer accumulated in brain and urinary bladder, facilitating a favorable signal‐to‐noise ratio. We prolonged the imaging and performed an additional PET scan after 260 min to further increase the signal‐to‐background ratio. In all investigated residual organs (kidney, lung, heart, liver, and spleen), [^18F]1 was present even after 260 min, indicating a favorable biodistribution and high metabolic stability in vivo (Figure 5F).
Adult C57bl/6 (biodistribution study, 19.8±1.3 g) or tumor-bearing NSG mice (22.2±2.2 g) were anesthetized by isoflurane/O2, and one lateral tail vein was cannulated using a 27 G needle. A respective radiotracer (~ 390 kBq/g body weight) was injected as a bolus via the tail vein, and subsequent PET scanning was performed. A ~1000-fold excess of unlabeled JMS0414 (14 for [^18F]MRS-4648 ([^18F]2)), unlabeled PSB-19427 (1), or PSB-12651 (15) (for [^18F]PSB-19427 ([^18F]1)) was injected into a subgroup of tumor-bearing mice 10 min before radiotracer injection in the blocking studies. PET imaging studies were carried out using a submillimeter high resolution (0.7 mm full width at half-maximum) small animal scanner (32 module quadHIDAC, Oxford Positron Systems Ltd., Oxford, UK) with a uniform spatial resolution (<1 mm) over a large cylindrical field (165 mm diameter, 280 mm axial length). List-mode data were acquired for 90 min and reconstructed into dynamic time frames using an iterative reconstruction algorithm. In a subgroup of mice, measurements were complemented by late time point PET scans for 20 min 4 h after injection. Subsequently, after PET acquisitions, the scanning bed was transferred to the computed tomography (CT) scanner (Inveon, Siemens Medical Solutions, U.S.), and a CT acquisition with a spatial resolution of 80 μm was performed for each mouse. Final acquisitions were performed as contrast-enhanced CT with i.v. injection of iopromid (Ultravist®370). Reconstructed image data sets were coregistered based on extrinsic markers attached to the multimodal scanning bed, and the in-house developed image analysis software MEDgical (EIMI) was used for quantification. Three-dimensional volumes of interest (VOIs) were defined over the respective organs in CT data sets, transferred to the coregistered PET data, and analyzed quantitatively. Regional uptake was calculated as the percentage of injected dose by dividing counts per min (cpm) in the VOI by total counts in the mouse multiplied by 100 (%ID/mL). The clearance of the radiotracers was calculated based on the PET results. PET imaging studies using [^18F]FDG were performed analogously with a few variations. List-mode data were acquired for 60-75 min after tracer injection and reconstructed using an iterative reconstruction algorithm. Additionally, the scanned mice remained alive after PET and CT scans and were used the next day for imaging experiments with [^18F]PSB-19427 ([^18F]1) for direct comparison of [^18F]FDG and [^18F]PSB-19427 ([^18F]1). […]

What is called Ki is the dissociation constant of the complex between target and ligand, obtained from inhibition or displacement. Usually logD stands for lipophilicity at a set pH, counting ionised and neutral species. A high value points to higher lipophilicity.

As for `CCCN(Cc1ccc(-c2cn(CC[18F])nn2)cc1)c1nc(Cl)nc2c1ncn2[C@@H]1O[C@H](COP(=O)(O)CP(=O)(O)O)[C@@H](O)[C@H]1O` [[^18F]1, [^18F]-[((2R,3S,4R,5R)-5-{2-chloro-6-[(4-{1-[2-(fluoro)ethyl]-1H-1,2,3-triazol-4-yl}benzyl)-(propyl)amino]-9H-purin-9-yl}-3,4-dihydroxytetrahydrofuran-2-yl)methoxy]methylene-bisphosphonic acid], the inhibition constant (Ki) in data set [1] came out at 1.02 ± 0.11 nM. In addition, the logD in data set [2] is -0.12. In data set [3] (at 90 min p.i.), the Hepatobiliary excretion route was determined as 37 %ID and the “Radiosignal proportion in the blood” value is on record as 18.2% ± 1.7 %ID/g. For the same compound, in data set [3] (time not given), the Renal excretion route is 2 %ID.
On to `Cn1c(=O)n([C@@H]2O[C@H](COP(=O)(O)CP(=O)(O)O)[C@@H](O)[C@H]2O)cc/c1=N/OCc1ccc(-c2cn(CC[18F])nn2)cc1` [[^18F]2, [^18F]-{[(2R,3S,4R,5R)-5-(4-{[(4-{1-[2-(fluoro)ethyl]-1H-1,2,3-triazol-4-yl}benzyl)-oxy]imino}-3-methyl-2-oxo-3,4-dihydropyrimidin-1(2H)-yl)-3,4-dihydroxytetra-hydrofuran-2-yl]methoxy}methylenebisphosphonic acid], for which the inhibition constant Ki in data set [1] worked out at 0.664 ± 0.089 nM. The compound further came in with a pH-dependent lipophilicity (logD) in data set [2] of 0.74 ± 0.29. Further, the Radiosignal in blood in data set [3] (after 90 min) turned out to be 0.3 ± 0.1 %ID/mL. Moreover, in data set [3] (within the first 30 min), the Hepatobiliary excretion worked out at 60 %ID and the Renal excretion worked out at 19 %ID. Also, the “Fraction of tracer excreted” value in data set [3] (within the first 30 min, i.v., female C57BL/6 WT mice) is reported as over 95%.
With `CCCN(Cc1ccc(-c2cn(CCF)nn2)cc1)c1nc(Cl)nc2c1ncn2[C@@H]1O[C@H](COP(=O)(O)CP(=O)(O)O)[C@@H](O)[C@H]1O` [compound 1], the Ki in data set [1] turned out to be 1.02 nM. This compound came in with a logD in data set [2] of -0.12 ± 0.03.
